Experimental findings from patent publication US20150051202A1, “TRIAZOLOPYRAZINE DERIVATIVES” (Merck Patent GmbH, priority 2012, published 2015) are described below.

The target in assay [1] is GCN2 (Homo sapiens, UniProt Q9P2K8). The assay is described as follows: GCN2 enzyme assay (TR-FRET Lanthascreen, GFP-eIF2alpha substrate). It is filed as biochemical. An excerpt:
GCN2: Assay Principle & Conditions
This assay can quantificate the activity of the serin kinase GCN2 (general control non-derepressible-2).
This kinase is involved in the stress metabolism of cells. It is activated upon starvation (amino acid depletion). Its natural substrate is eIF2a (eukaryotic initiation factor 2 alpha subunit), a translation factor, which gets activated (phosphorylated) by GCN2 in case of an amino acid bottleneck in the cells. This in turn leads to a halt of the protein synthesis. Inhibition of GCN2 results in stopping this mechanism: The cell can not stop protein production upon “starvation” stress.
The assay is run in two steps: the enzymatic reaction and the detection step. In the first step GCN2 is incubated with 10 μM ATP and 80 nM of the GFP-labelled substrate eIF2alpha at room temperature.
The enzymatic reaction is stopped by addition of EDTA. The amount of phosphorylated eIF2alpha is determined by TR-FRET (Lanthascreen): A complex is formed consisting of antibody and GFP labelled phospho-eIF2a, which allows a FRET upon exitation at 340 nm.
Final Concentrations in the Enzymatic Reaction • Hepes, pH 7.0 50 mM • MgCl2 10 mM • MnCl2 5 mM • BSA 0.1% • DMSO 1% • ATP 10 uM • DTT 2 mM • GFP-eIF2a 80 nM (substrate) • GCN2 30 nM (enzyme)
For orientation: TR-FRET usually uses a lanthanide donor and a delayed reading to cut background.

Assay [2] has as its target T1, SYK (Homo sapiens, UniProt P43405).
T1 construct: purchased BPS Bioscience, CA, USA
As to the kind of experiment: SYK enzyme assay (Flash plate assay / Caliper mobility shift assay). The assay is classed as biochemical. As to conditions: for SYK (enzyme assay) % at 3 μM: 100% corresponds to zero effect, −50% corresponds to IC50. The protocol:
The kinase assay is performed either as 384-well Flashplate assay (for e.g. Topcount measurement) or as 384-well Image-Flashplate assay (for LEADseeker measurement).
2.5 nM SYK, 400 nM Biotin-Aha-Aha-[…]
and 10 μM ATP (spiked with 0.3 μCi 33P-ATP/well) are incubated in a total volume of 50 μl (60 mM Hepes, 10 mM MgCl2, 1.2 mM Dithiothreitol, 0.02% Brij35, 0.1% BSA, pH 7.5) with or without test compound for 1 hours at 30° C. The reaction is stopped with 25 μl 200 mM EDTA. After 30 Min at 30° C. the liquid is removed and each well washed thrice with 100 μl 0.9% sodium chloride solution. Non-specific reaction is determined in presence of 0.1 μM Staurosporine. Radioactivity is measured with Topcount (when using Flashplates) or with LEADseeker (when using Image-Flashplates) respectively. Results (e.g. IC50-values) are calculated with program tools provided by the IT-department (e.g. Symyx Assay Explorer, Genedata Screener).
Enzymatic Assays Using the Caliper LifeSciences Technology
The assays described here are performed on the Caliper Life Sciences LC3000 system This technology provides data on enzyme activity via measurement of the relative amounts of phosphorylated or unphosphorylated fluorescently labelled substrate peptide at the end of an enzymatic reaction.
These different states of peptide are resolved by applying a potential difference across the sample. The presence of the charged phosphate group on the product (as opposed to the substrate) causes a different peptide mobility between the two peptides. This is visualized by excitation of the fluorescent label on the substrate and product peptides and represented as peaks within the analysis software.
In order to measure inhibitor activity of kinase inhibitors on this technology, a TTP Mosquito liquid handling instrument is used to place 0.25 ul of the appropriate concentration of inhibitor in 100% DMSO (for a dose response curve calculation) into each well of a 384-well plate. To this reaction components are added to a final volume of 25 ul. The table below indicates the sequences and concentrations for the assays described in this report. Standard components are 1 mM DTT (Sigma, D0632), 1 mM MgCl2 (Sigma, M1028), 100 mM HEPES pH 7.5 (Calbiochem, 391338), 0.015% Brij-35 (Sigma, B4184).
The reaction is incubated for 90 min at 25 C, and then stopped by the addition of 70 ul of Stop buffer (100 mM HEPES pH 7.5, 0.015% Brij-35, 10 mM EDTA (Sigma, E7889)).
The plate is read on a Caliper LC 3000 in an Off-Chip mobility shift assay format, on a 12-sipper chip. Unphosphorylated substrate and phosphorylated product peptide resolve as separate peaks allowing direct measurement of percentage of conversion of substrate to product. The percent conversion can be plotted against concentration of inhibitor to produce a sigmoidal dose response curve, from which an IC50 can be calculated using GeneData Condoseo or a similar product.

Marks after values point to notes of the source that are not given here.

Sequence of GCN2 (Q9P2K8 whole entry): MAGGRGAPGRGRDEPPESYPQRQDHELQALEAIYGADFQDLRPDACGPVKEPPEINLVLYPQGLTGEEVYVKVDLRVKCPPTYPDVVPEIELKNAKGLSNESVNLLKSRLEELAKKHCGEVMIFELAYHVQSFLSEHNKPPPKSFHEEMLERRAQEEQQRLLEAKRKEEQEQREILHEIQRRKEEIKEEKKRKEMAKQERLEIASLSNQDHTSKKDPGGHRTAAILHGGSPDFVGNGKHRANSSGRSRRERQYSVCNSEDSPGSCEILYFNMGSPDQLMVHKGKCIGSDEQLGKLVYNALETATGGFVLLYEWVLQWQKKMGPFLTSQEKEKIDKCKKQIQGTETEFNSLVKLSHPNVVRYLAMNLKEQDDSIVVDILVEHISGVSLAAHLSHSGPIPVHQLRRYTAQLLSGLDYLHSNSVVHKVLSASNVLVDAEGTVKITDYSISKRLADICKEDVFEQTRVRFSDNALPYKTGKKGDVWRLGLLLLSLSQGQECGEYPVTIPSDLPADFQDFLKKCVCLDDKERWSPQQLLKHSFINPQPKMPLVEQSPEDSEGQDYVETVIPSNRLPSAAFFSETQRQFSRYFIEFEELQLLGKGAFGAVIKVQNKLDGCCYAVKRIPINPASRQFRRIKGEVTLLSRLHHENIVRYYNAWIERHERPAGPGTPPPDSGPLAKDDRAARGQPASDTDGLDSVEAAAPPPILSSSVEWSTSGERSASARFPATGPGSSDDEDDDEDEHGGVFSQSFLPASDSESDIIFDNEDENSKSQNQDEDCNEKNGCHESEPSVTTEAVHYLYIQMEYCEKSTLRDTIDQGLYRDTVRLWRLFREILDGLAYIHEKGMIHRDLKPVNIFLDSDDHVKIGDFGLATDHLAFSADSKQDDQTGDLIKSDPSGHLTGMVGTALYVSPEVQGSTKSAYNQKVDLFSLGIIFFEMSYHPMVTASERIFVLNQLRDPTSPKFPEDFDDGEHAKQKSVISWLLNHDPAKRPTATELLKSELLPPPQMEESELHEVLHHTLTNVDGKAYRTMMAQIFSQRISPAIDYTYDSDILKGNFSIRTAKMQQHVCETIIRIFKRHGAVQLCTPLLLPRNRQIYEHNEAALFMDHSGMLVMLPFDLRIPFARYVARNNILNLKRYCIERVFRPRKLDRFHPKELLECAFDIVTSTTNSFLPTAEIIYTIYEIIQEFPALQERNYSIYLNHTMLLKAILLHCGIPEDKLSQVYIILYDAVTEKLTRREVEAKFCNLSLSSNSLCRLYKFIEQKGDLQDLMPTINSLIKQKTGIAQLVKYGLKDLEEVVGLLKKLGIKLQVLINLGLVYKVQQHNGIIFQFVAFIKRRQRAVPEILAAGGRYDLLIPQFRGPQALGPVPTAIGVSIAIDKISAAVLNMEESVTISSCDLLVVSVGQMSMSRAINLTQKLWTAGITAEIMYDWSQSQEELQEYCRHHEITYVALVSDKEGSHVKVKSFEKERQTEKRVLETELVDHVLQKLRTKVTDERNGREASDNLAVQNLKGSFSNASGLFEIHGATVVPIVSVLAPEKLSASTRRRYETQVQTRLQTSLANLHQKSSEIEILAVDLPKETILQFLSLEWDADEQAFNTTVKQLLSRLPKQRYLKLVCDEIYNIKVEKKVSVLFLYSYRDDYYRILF

Usually IC50 stands for the concentration at which inhibition is half-maximal. As for `Cn1ncc2cc(-c3cncc4nc(Nc5ccc(S(C)(=O)=O)cc5)nn34)ccc21` [Compound A1, (4-methanesulfonyl-phenyl)-[5-(1-methyl-1H-indazol-5-yl)-[1,2,4]triazolo[1,5-a]pyrazin-2-yl]-amine], the IC50 in assay [1] fell in the range of 5000 to 10000 nM. In assay [2], the “SYK (enzyme assay) % at 3 μM” value is reported as −18@3 * %.

In assay [1], `COc1cccc(Nc2nc3cncc(-c4ccc5c(cnn5C)c4)n3n2)c1` [Compound A2] returned an IC50 of less than 1000 nM. The “SYK (enzyme assay) % at 3 μM” value in assay [2] is listed as −29@3%.

For `Cn1ncc2cc(-c3cncc4nc(Nc5cccnc5)nn34)ccc21` [Compound A3, [5-(1-methyl-1H-indazol-5-yl)-[1,2,4]triazolo[1,5-a]pyrazin-2-yl]-pyridin-3-yl-amine], the IC50 in assay [1] lay within 1000 to 5000 nM. For the same compound, the “SYK (enzyme assay) % at 3 μM” value in assay [2] is recorded as −9@3%.

Consider `Cc1cc(Nc2nc3cncc(-c4ccc5c(cnn5C)c4)n3n2)ccc1N1CCN(C)CC1` [Compound A4, [5-(1-methyl-1H-indazol-5-yl)-[1,2,4]triazolo[1,5-a]pyrazin-2-yl]-[3-methyl-4-(4-methyl-piperazin-1-yl)-phenyl]-amine], for which the IC50 in assay [1] and in assay [2] was less than 1000 nM in each case.

With `Cn1ncc2cc(-c3cncc4nc(Nc5ccc6c(c5)NC(=O)C6(C)C)nn34)ccc21` [Compound A5, 3,3-dimethyl-6-[5-(1-methyl-1H-indazol-5-yl)-[1,2,4]triazolo[1,5-a]pyrazin-2-ylamino]-1,3-dihydro-indol-2-one], the IC50 in assay [1] is 1000 to 5000 nM; in assay [2] it was less than 1000 nM.

As to `CN(C)Cc1nc2cc(Nc3nc4cncc(-c5ccc6c(cnn6C)c5)n4n3)ccc2[nH]1` [Compound A6, (2-dimethylaminomethyl-1H-benzoimidazol-5-yl)-[5-(1-methyl-1H-indazol-5-yl)-[1,2,4]triazolo[1,5-a]pyrazin-2-yl]-amine], the IC50 in assay [1] was less than 1000 nM; in assay [2] it was 1000 to 5000 nM.

On to `NS(=O)(=O)c1cccc(Nc2nc3cncc(-c4cnc5ccccc5c4)n3n2)c1` [Compound A7, 3-(5-quinolin-3-yl-[1,2,4]triazolo[1,5-a]pyrazin-2-ylamino)-benzenesulfonamide], for which the IC50 in assay [1] was in the range of 5000 to 10000 nM; in assay [2], 1000 to 5000 nM.

Consider `Cc1cc(Nc2nc3cncc(-c4cnc5ccccc5c4)n3n2)ccc1N1CCN(C)CC1` [Compound A8, [3-methyl-4-(4-methyl-piperazin-1-yl)-phenyl]-(5-quinolin-3-yl-[1,2,4]triazolo[1,5-a]pyrazin-2-yl)-amine], for which the IC50 in assay [1] and in assay [2] was 1000 to 5000 nM throughout.

In the case of `CC1(C)C(=O)Nc2cc(Nc3nc4cncc(-c5cnc6ccccc6c5)n4n3)ccc21` [Compound A9, 3,3-dimethyl-6-(5-quinolin-3-yl-[1,2,4]triazolo[1,5-a]pyrazin-2-ylamino)-1,3-dihydro-indol-2-one], the IC50 in assay [1] and in assay [2] was 1000 to 5000 nM each time.

Compound `Cn1cc(-c2cncc3nc(Nc4cccnc4)nn23)cn1` [Compound A12, [5-(1-methyl-1H-pyrazol-4-yl)-[1,2,4]triazolo[1,5-a]pyrazin-2-yl]-pyridin-3-yl-amine] displayed an IC50 in assay [1] of less than 1000 nM.

Take `Fc1cccc(Nc2nc3cnc(Cl)cn3n2)c1` [Compound A19]: the IC50 in assay [1] was 1000 to 5000 nM.

In assay [1], `Fc1ccc(Nc2nc3cnc(Cl)cn3n2)cc1` [Compound A21] gave a half-inhibitory concentration (IC50) of 1000 to 5000 nM.

Turning to `COc1cccc(Nc2nc3cnc(C#N)cn3n2)c1` [Compound A23], the IC50 in assay [1] is 1000 to 5000 nM.

In the case of `COc1cccc(Nc2nc3cnc(C)cn3n2)c1` [Compound A24, (3-methoxy-phenyl)-(6-methyl-[1,2,4]triazolo[1,5-a]pyrazin-2-yl)-amine], the “SYK (enzyme assay) % at 3 μM” value in assay [2] is recorded as 1@3%.

In assay [1], `Fc1ccc(Nc2cn3nc(Nc4cccnc4)nc3cn2)cc1` [Compound A29, N6-(4-fluoro-phenyl)-N2-pyridin-3-yl-[1,2,4]triazolo[1,5-a]pyrazine-2,6-diamine] had an IC50 of 1000 to 5000 nM.

Compound `c1cnc2ccc(-c3cncc4nc(Nc5ccc(N6CCOCC6)cc5)nn34)cc2c1` [Compound A33, (4-morpholin-4-yl-phenyl)-(5-quinolin-6-yl-[1,2,4]triazolo[1,5-a]pyrazin-2-yl)-amine] had an IC50 in assay [1] of 1000 to 5000 nM.

On to `Cn1ncc2cc(-c3cncc4nc(Nc5ccc6c(c5)CC(=O)N6)nn34)ccc21` [Compound A38, 5-[5-(1-methyl-1H-indazol-5-yl)-[1,2,4]triazolo[1,5-a]pyrazin-2-ylamino]-1,3-dihydro-indol-2-one], for which, in assay [1], the IC50 was less than 1000 nM.

In assay [1], `Cn1ncc2cc(-c3cncc4nc(Nc5cccc(S(N)(=O)=O)c5)nn34)ccc21` [Compound A39, 3-[5-(1-methyl-1H-indazol-5-yl)-[1,2,4]triazolo[1,5-a]pyrazin-2-ylamino]-benzenesulfonamide] displayed an IC50 of less than 1000 nM.

Consider `Cc1cc(Nc2nc3cncc(-c4ccc(C(C)(C)C#N)cc4)n3n2)ccc1N1CCN(C)CC1` [Compound A40, 2-methyl-2-(4-{2-[3-methyl-4-(4-methyl-piperazin-1-yl)-phenylamino]-[1,2,4]triazolo[1,5-a]pyrazin-5-yl}-phenyl)-propionitrile], for which the IC50 in assay [1] was less than 1000 nM.

Turning to `Cn1cc(-c2cncc3nc(Nc4ccc5c(c4)CC(=O)N5)nn23)cn1` [Compound A41, 5-[5-(1-methyl-1H-pyrazol-4-yl)-[1,2,4]triazolo[1,5-a]pyrazin-2-ylamino]-1,3-dihydro-indol-2-one], the half-maximal inhibitory concentration (IC50) in assay [1] was less than 1000 nM.

For the compound `Cc1cc(Nc2nc3cncc(-c4cnn(C)c4)n3n2)ccc1N1CCN(C)CC1` [Compound A42, 5-(1-methyl-1H-pyrazol-4-yl)-N-(3-methyl-4-(4-methylpiperazin-1-yl)phenyl)-[1,2,4]triazolo[1,5-a]pyrazin-2-amine], in assay [1], the IC50 is less than 1000 nM.

Regarding `Cc1cc(Nc2nc3cncc(-c4cccc(NS(C)(=O)=O)c4)n3n2)ccc1N1CCN(C)CC1` [Compound A43, N-(3-(2-((3-methyl-4-(4-methylpiperazin-1-yl)phenyl)amino)-[1,2,4]triazolo[1,5-a]pyrazin-5-yl)phenyl)methanesulfonamide], in assay [1], the IC50 is less than 1000 nM.

In assay [1], `Cc1cc(Nc2nc3cncc(-c4cccc(C(N)=O)c4)n3n2)ccc1N1CCN(C)CC1` [Compound A54, 3-{2-[3-methyl-4-(4-methyl-piperazin-1-yl)-phenylamino]-[1,2,4]triazolo[1,5-a]pyrazin-5-yl}-benzamide] gave an IC50 of 1000 to 5000 nM.

In turn, `CN1CCN(c2ccc(Nc3nc4cncc(-c5cnn(C)c5)n4n3)cn2)CC1` [Compound A90, [6-(4-methyl-piperazin-1-yl)-pyridin-3-yl]-[5-(1-methyl-1H-pyrazol-4-yl)-[1,2,4]triazolo[1,5-a]pyrazin-2-yl]-amine] registered an IC50 in assay [1] of less than 1000 nM.

Turning to `CNS(=O)(=O)c1cccc(-c2cncc3nc(Nc4ccc(N5CCN(C)CC5)c(OC)c4)nn23)c1` [Compound A96, 3-{2-[3-methoxy-4-(4-methyl-piperazin-1-yl)-phenylamino]-[1,2,4]triazolo[1,5-a]pyrazin-5-yl}-N-methyl-benzenesulfonamide], the IC50 in assay [1] lay within 1000 to 5000 nM.
